Results reported in publication PMC8092647, “Assessment of carbapenems in a mouse model of Mycobacterium tuberculosis infection” (PLoS ONE, 2021).
“Also recorded” adds a separate entry of the source. Where two headings read alike, the source gives them in different places.

Assays:
M. tuberculosis H37Rv [1] = experiment: Minimum inhibitory concentration (MIC) by micro broth dilution, read by visual inspection of the bacterial pellet after 14 d; format: cell-based; details: Mycobacterium tuberculosis, 336 h
M. tuberculosis H37Rv [2] = experiment: Sub-acute mouse model of M. tuberculosis infection, lung CFU burden; format: in vivo, BALB/c mice; details: for onset of activity in infected mice (reduction of lung burden at one week vs no-treatment group): 400 mg/kg bid sc + 75 mg/kg clavulanate, little or no reduction at one week; for efficacy in comparison (lung M. tuberculosis burden): 1 and 3 weeks
[3] = Mouse plasma pharmacokinetics after a single 25 mg/kg sc dose (LC-MS, non-compartmental model); details: for %T>MIC: female BALB/c mice, single 25 mg/kg sc, percentage of time above the MIC over 3 h; for AUC(0-t) / Cmax / concentration at 3 h / half-life: female, BALB/c, mouse, plasma, sc, 25 mg/kg
M. tuberculosis = system: M. tuberculosis; parameters: method as in Chambers et al. [7] (imipenem), Kumar et al. [6] (biapenem); details: acute M. tuberculosis infection model in mice; ref Chambers et al. [7] (imipenem), Kumar et al. [6] (biapenem); cited from earlier work
[4] = female, BALB/c, mouse, in vivo, sc, 25 mg/kg
in vivo = details: female, BALB/c, mouse, sc, 25 mg/kg
[5] = carbapenems 400 mg/kg bid sc + 75 mg/kg clavulanate, rifampin 10 mg/kg once daily orally
[6] = M. tuberculosis H37Rv, 7H9 broth without Tween-80, 14 d, drug alone without clavulanate, read-out: MIC

With C[C@@H](O)[C@H]1C(=O)N2C(C(=O)[O-])=C(SCCc3ccccc3)[C@H](C)[C@H]12.[Na+] [JSF-2417, Sodium (4R,5S,6S)-6-((R)-1-hydroxyethyl)-4-methyl-7-oxo-3-(phenethylthio)-1-azabicyclo[3.2.0]hept-2-ene-2-carboxylate] the MIC (M. tuberculosis H37Rv [1]; H37RV) was 2 to 4 µg/mL, the “onset of activity in infected mice (reduction of lung burden at one week vs no-treatment group)” value (M. tuberculosis H37Rv [2]) was “delayed activity” and the “efficacy in comparison (lung M. tuberculosis burden)” value (M. tuberculosis H37Rv [2]; [5]) was “inferior”. For the same compound, the “%T>MIC” value [3] was 8.3–33%, the AUC(0-t) [3] was 5740 ng·h/mL and the Cmax [3] was 5190 ng/mL. It also gave a concentration at 3 h [3] of 262 ng/mL and a half-life [3] of 38.8 min.
For CO[C@H]1/C=C/O[C@@]2(C)Oc3c(C)c(O)c4c(O)c(c(/C=N/N5CCN(C)CC5)c(O)c4c3C2=O)NC(=O)/C(C)=C\C=C\[C@H](C)[C@H](O)[C@@H](C)[C@@H](O)[C@@H](C)[C@H](OC(C)=O)[C@@H]1C [rifampin, reference compound], the “effect on lung bacterial burden after one week of dosing” value (M. tuberculosis H37Rv [2]; rifampin 10 mg/kg once daily orally, 1 week) was “bacteriostatic effect” and the “effect on lung bacterial burden after 3 weeks of dosing” value (M. tuberculosis H37Rv [2]; rifampin 10 mg/kg once daily orally, carbapenems 400 mg/kg bid sc + 75 mg/kg clavulanate, 3 weeks) was “bacteriostatic effect”.
For CSC1=C(C(=O)[O-])N2C(=O)[C@H]([C@@H](C)O)[C@H]2[C@H]1C.[Na+] [JSF-2204, Sodium (4R,5S,6S)-6-((R)-1-hydroxyethyl)-4-methyl-3-(methylthio)-7-oxo-1-azabicyclo[3.2.0]hept-2-ene-2-carboxylate], the MIC (M. tuberculosis H37Rv [1]; H37RV) was 0.25 to 0.5 µg/mL, the “onset of activity in infected mice (reduction of lung burden at one week vs no-treatment group)” value (M. tuberculosis H37Rv [2]) was “delayed activity” and the “efficacy in comparison (lung M. tuberculosis burden)” value (M. tuberculosis H37Rv [2]; [5]) was “efficacy equivalent to that of meropenem; also recorded: inferior to rifampin; also recorded: statistically indistinguishable efficacy; also recorded: statistically equivalent performance to meropenem”. For the same compound, the “%T>MIC” value [3] was 33–100%, the AUC(0-t) [3] was 23000 ng·h/mL and the Cmax [3] was 63000 ng/mL.
For C[C@@H](O)[C@H]1C(=O)N2C(C(=O)[O-])=C(SC3Cn4cnc[n+]4C3)[C@H](C)[C@H]12 (stereo partly drawn) [Biapenem, reference compound], the MIC (M. tuberculosis H37Rv [1]; [6]) is given as 2.5 to 5 µg/mL, the “onset of activity in infected mice” value (M. tuberculosis) is given as “delayed activity” and the “%T>MIC” value [3] is given as 33–100%. The AUC(0-t) [3] was 63300 ng·h/mL, the Cmax [3] was 55600 ng/mL and the half-life [3] was 17.3 min.
With C[C@@H](O)[C@H]1C(=O)N2C(C(=O)[O-])=C(SCCC(=O)N3CCOCC3)[C@H](C)[C@H]12.[Na+] [JSF-2700, Sodium (4R,5S,6S)-6-((R)-1-hydroxyethyl)-4-methyl-3-((3-morpholino-3-oxopropyl)thio)-7-oxo-1-azabicyclo[3.2.0]hept-2-ene-2-carboxylate] the MIC (M. tuberculosis H37Rv [1]; H37RV) was 2 to 4 µg/mL, the “%T>MIC” value [3] was 8.3–33% and the AUC(0-t) [3] was 5930 ng·h/mL. For the same compound, the Cmax [3] was 17400 ng/mL, the concentration at 3 h [3] was 6 ng/mL and the half-life [3] was 15.5 min.
For C[C@@H](O)[C@H]1C(=O)N2C(C(=O)O)=C(SCC(F)(F)F)[C@H](C)[C@H]12 [JSF-2415], the MIC (M. tuberculosis H37Rv [1]; [6]) was 4 to 8 µg/mL, the “%T>MIC” value [4] was 17–33% and the AUC(0-t) (in vivo) was 12500 ng·h/mL. It also gave a Cmax (in vivo) of 34800 ng/mL and a half-life (in vivo) of 14.5 min.
For C[C@@H](O)[C@H]1C(=O)N2C(C(=O)O)=C(S[C@@H]3CN[C@H](C(=O)N(C)C)C3)[C@H](C)[C@H]12 [Meropenem, reference compound], the MIC (M. tuberculosis H37Rv [1]; [6]) was 4 to 8 µg/mL, the “onset of activity in infected mice (reduction of lung burden at one week vs no-treatment group)” value (M. tuberculosis H37Rv [2]) was “delayed activity” and the “%T>MIC” value [3] was under 8.3%. It also gave an AUC(0-t) [3] of 613 ng·h/mL, a Cmax [3] of 1340 ng/mL and a half-life [3] of 27.8 min.
In the case of C[C@@H](O)[C@H]1C(=O)N2C(C(=O)O)=C(SCC(=O)OC(C)(C)C)[C@H](C)[C@H]12 [JSF-2196], the MIC (M. tuberculosis H37Rv [1]; [6]) is reported as 2 to 4 µg/mL, the “%T>MIC” value [4] is reported as 17–33% and the AUC(0-t) (in vivo) is reported as 9060 ng·h/mL. It also gave a Cmax (in vivo) of 20500 ng/mL and a half-life (in vivo) of 13.8 min.
For C[C@@H](O)[C@H]1C(=O)N2C(C(=O)O)=C(SCCN=CN)C[C@H]12 [imipenem], the “onset of activity in infected mice” value (M. tuberculosis) is listed as “delayed activity”.
